Reference: US10017451B2, “Lactic acid extraction” (PURAC BIOCHEM BV, priority 2011, dated 2018)

Legend:
Assay type in all cases: physicochemical
[1] = Stability of solvents in contact with lactic acid feed solution, gas chromatography (Example 6); details: 60° C.
Protocol: This experiment was conducted to compare the stability of two solvents, MIBK and Isoamyl alcohol in contact with the lactic acid feed solution as prepared in example 1. For each solvent a closed glass reactor was filled with 20 g of solvent and 20 g of the lactic acid feed solution, put in an oven to maintain a temperature of 60° C. and shaken continuously.
After 3 hrs, 24 hrs (1 day) and 168 hrs (1 week) the shaking was stopped for 1 hour to allow the phases to settle, a sample was taken from the solvent top layer, and the composition of the solvent top layer analyzed by gas chromatography.

[2] = MIBK solubility in aqueous MgCl2 solution, gas chromatography (Example 8); details: aqueous phase
Protocol: Hereafter, the stirring is stopped, the phases were allowed to separate and a sample was taken from the aqueous bottom phase. The concentration of MIBK in this sample was determined by gas chromatography.

[3] = Lactic acid distribution ratio MIBK/aqueous MgCl2 solution (Example 7); details: initial lactic acid 20 wt %
Description: Forward extraction and back extraction as used in the method of the invention are based on the difference in solubility of the lactic acid in water and the organic solvent at different temperatures. The solubility of a compound in one solvent relative to another solvent can be expressed in terms of the distribution ratio (DR). This ratio gives an indication how a compound will be distributed over the aqueous phase (e.g. the aqueous mixture) and the organic phase (e.g. the organic liquid) in a two-phase system at equilibrium. The distribution ratio may be defined as the ratio of the lactic acid concentration dissolved in the organic phase ([lactic acid]organic) over the concentration of the lactic acid dissolved in water ([lactic acid]water) provided that the two phases are in equilibrium with each other: DR=[lactic acid]organic/[lactic acid]water(1)
The resulting two phase system was stirred at 20° C. or 60° C. for 30 minutes with sufficient speed to ensure that both phases are well dispersed. Hereafter, the stirring is stopped, the phases were allowed to separate and samples were taken from both phases. The concentration of lactic acid (wt %) in these samples was determined by potentiometric titration. Hereafter the distribution ratio was calculated as the ratio of the lactic acid concentration (wt %) in the MIBK organic solvent phase divided by the lactic acid concentration (wt %) in the aqueous phase.

For CC(=O)CC(C)C [MIBK, methyl-isobutyl-ketone], the “changes in purity of the solvent” value ([1]; after 168 hrs, GC of solvent top layer) was “no changes in the purity of the MIBK could be detected”, the MIBK solubility ([2]; MgCl2 0 wt %, 20° C.) was 1.8 wt % and the MIBK solubility ([2]; MgCl2 0 wt %, 60° C.) was 1.4 wt %. It also gave an MIBK solubility ([2]; MgCl2 15 wt %, 20° C.) of 0.48 wt %, an MIBK solubility ([2]; MgCl2 15 wt %, 60° C.) of 0.20 wt % and an MIBK solubility ([2]; MgCl2 30 wt %, 20° C.) of 0.17 wt %. It also gave an MIBK solubility ([2]; MgCl2 30 wt %, 60° C.) of 0.11 wt %.

CC(C)CCO [isoamyl alcohol] gave an isoamyllactate concentration ([1]; 24 hrs and 168 hrs samples) of 22.5 area % and an isoamyllactate formed ([1]; after 3 hrs, GC of solvent top layer) of 14.6 area %.

For CC(O)C(=O)O (stereo not drawn) [lactic acid], the “Lactic acid distribution ratio” value ([3]; MgCl2 0 wt %, 20° C.) was 0.16 wt %/wt %, the “Lactic acid distribution ratio” value ([3]; MgCl2 0 wt %, 60° C.) was 0.19 wt %/wt % and the “Lactic acid distribution ratio” value ([3]; MgCl2 10.5 wt %, 20° C.) was 0.33 wt %/wt %. For the same compound, the “Lactic acid distribution ratio” value ([3]; MgCl2 10.5 wt %, 60° C.) was 0.37 wt %/wt %, the “Lactic acid distribution ratio” value ([3]; MgCl2 16.0 wt %, 20° C.) was 0.49 wt %/wt % and the “Lactic acid distribution ratio” value ([3]; MgCl2 16.0 wt %, 60° C.) was 0.56 wt %/wt %.
